Results on six compounds are retold here after ChEMBL document CHEMBL1944594, “Synthesis, biological evaluation, and docking studies of tetrahydrofuran- cyclopentanone- and cyclopentanol-based ligands acting at adrenergic α₁- and serotonine 5-HT1A receptors” (J Med Chem, 2012).

For test [1], the target named is T1, Alpha-1B adrenergic receptor (Rattus norvegicus) (UniProt P15823).
T1 sequence (whole entry): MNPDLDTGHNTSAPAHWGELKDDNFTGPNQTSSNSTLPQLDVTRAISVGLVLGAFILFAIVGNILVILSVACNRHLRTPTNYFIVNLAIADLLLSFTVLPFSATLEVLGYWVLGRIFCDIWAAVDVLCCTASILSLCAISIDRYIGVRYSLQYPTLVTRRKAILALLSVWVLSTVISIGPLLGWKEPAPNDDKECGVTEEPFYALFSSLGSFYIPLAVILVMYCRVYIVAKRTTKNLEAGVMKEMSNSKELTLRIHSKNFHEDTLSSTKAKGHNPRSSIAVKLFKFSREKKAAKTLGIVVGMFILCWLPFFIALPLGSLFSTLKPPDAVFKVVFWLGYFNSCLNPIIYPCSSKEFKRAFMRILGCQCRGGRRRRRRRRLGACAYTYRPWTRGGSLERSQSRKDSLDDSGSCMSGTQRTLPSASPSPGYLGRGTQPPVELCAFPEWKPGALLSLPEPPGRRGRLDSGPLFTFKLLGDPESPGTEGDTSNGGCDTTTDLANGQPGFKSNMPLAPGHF
The experiment in a line: Antagonist activity at Alpha-1B receptor in Wistar rat spleen assessed as inhibition of (-)-phenylephrine-induced contraction after 30 mins. The test is classed as functional, tissue-based.

For test [2], the target named is T2, 5-hydroxytryptamine receptor 1A (Homo sapiens) (UniProt P08908).
T2 sequence (whole entry): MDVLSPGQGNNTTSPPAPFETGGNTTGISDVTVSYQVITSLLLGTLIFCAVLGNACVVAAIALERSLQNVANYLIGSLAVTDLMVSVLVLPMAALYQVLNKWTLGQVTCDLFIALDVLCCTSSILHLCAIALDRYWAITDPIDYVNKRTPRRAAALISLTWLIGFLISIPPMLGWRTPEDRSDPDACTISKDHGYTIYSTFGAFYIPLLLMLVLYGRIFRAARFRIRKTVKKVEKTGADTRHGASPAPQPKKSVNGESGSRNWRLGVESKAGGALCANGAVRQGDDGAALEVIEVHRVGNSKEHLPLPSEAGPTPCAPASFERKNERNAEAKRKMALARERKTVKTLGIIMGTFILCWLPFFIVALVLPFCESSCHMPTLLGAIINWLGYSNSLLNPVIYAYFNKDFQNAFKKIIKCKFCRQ
Conditions: HeLa.

Test [3] addresses T3, Alpha-1A adrenergic receptor (Rattus norvegicus) (UniProt P43140).
T3 sequence (whole entry): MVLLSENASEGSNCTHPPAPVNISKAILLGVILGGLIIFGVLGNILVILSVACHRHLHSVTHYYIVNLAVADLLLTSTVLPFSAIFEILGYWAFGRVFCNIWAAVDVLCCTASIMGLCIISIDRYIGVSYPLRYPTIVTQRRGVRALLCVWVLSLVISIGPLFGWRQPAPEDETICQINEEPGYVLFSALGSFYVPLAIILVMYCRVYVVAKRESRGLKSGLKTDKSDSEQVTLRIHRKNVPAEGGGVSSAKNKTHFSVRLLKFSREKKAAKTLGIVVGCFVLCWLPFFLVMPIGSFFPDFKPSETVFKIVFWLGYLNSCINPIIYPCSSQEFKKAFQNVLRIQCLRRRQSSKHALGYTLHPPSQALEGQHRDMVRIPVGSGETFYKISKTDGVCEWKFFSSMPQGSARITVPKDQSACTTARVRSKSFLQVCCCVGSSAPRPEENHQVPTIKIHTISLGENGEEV
Nature of the test: Antagonist activity at alpha1A adrenoceptor in Wistar rat prostatic vas deferens assessed as inhibition of (-)-noradrenalilne-induced contraction after 30 mins. The test is classed as functional, tissue-based.

Test [4] has as its target T4, Alpha-1D adrenergic receptor (Rattus norvegicus) (UniProt P23944).
T4 sequence (whole entry): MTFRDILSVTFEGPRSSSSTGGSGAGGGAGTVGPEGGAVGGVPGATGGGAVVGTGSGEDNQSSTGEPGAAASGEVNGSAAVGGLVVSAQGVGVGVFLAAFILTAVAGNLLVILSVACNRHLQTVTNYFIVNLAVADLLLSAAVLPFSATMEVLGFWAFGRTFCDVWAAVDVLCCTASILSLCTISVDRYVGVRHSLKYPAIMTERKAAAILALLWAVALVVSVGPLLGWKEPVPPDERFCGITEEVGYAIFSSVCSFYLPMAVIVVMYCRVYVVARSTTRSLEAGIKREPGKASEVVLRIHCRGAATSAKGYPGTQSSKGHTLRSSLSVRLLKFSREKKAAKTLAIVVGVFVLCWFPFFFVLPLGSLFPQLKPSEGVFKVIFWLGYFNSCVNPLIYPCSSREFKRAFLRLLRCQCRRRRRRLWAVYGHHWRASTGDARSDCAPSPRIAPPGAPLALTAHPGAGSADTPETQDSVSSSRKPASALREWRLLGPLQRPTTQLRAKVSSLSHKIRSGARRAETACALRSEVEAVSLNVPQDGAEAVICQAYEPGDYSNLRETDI
Nature of the test: Antagonist activity at Alpha-1D adrenoceptor in Wistar rat endothelium denuded thoracic aorta assessed as inhibition of (-)-noradrenalilne-induced contraction after 30 mins. The test is classed as functional, tissue-based.

For test [5], the target named is T2, 5-hydroxytryptamine receptor 1A (Homo sapiens). The experiment in a line: Agonist activity at human recombinant 5HT1A receptor expressed in HeLa cells preincubated for 20 mins by [35S]GTPgammaS binding assay relative to 8-OH-DPAT. The test is classed as functional, cell-based. A general note: GTPγS resists hydrolysis and so accumulates on activated G proteins.

Test [6] has as its target T5, Alpha-1A adrenergic receptor (Homo sapiens, UniProt P35348).
T5 sequence (P35348 whole entry): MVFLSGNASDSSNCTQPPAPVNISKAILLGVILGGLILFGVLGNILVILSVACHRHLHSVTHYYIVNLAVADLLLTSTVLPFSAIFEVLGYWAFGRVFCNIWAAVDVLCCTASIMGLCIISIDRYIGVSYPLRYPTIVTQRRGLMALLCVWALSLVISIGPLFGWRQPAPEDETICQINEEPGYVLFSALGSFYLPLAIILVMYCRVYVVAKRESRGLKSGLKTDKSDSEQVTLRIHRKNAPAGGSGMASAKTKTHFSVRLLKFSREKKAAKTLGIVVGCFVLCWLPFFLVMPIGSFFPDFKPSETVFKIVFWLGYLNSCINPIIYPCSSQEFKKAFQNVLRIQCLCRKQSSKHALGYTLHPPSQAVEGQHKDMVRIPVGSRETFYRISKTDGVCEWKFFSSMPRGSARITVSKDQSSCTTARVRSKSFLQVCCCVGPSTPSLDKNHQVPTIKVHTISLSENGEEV
Nature of the test: biochemical.
Description: Displacement of [3H]prazosin from human recombinant alpha1A adrenoceptor expressed in CHO cells after 30 mins by liquid scintillation counting

Test [7] has as its target T6, Alpha-1B adrenergic receptor (Homo sapiens, UniProt P35368).
T6 sequence (P35368 whole entry): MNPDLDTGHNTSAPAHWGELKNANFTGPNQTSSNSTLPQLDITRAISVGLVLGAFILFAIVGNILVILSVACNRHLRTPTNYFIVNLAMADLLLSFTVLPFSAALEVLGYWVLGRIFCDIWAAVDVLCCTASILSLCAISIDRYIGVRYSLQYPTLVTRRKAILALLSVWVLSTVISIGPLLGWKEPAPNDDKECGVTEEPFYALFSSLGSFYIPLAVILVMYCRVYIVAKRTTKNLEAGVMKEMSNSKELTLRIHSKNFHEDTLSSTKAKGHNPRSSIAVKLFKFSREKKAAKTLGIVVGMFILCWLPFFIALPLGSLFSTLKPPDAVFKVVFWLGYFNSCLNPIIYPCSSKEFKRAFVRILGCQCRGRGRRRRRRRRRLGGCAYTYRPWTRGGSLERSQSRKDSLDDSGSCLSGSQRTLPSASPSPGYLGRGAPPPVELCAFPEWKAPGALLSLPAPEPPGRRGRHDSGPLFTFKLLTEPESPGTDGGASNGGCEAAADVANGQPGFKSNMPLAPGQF
Nature of the test: biochemical.
Description: Displacement of [3H]prazosin from human recombinant alpha1B adrenoceptor expressed in CHO cells after 30 mins by liquid scintillation counting

Test [8] deals with T7, Alpha-1D adrenergic receptor (Homo sapiens, UniProt P25100).
T7 sequence (P25100 whole entry): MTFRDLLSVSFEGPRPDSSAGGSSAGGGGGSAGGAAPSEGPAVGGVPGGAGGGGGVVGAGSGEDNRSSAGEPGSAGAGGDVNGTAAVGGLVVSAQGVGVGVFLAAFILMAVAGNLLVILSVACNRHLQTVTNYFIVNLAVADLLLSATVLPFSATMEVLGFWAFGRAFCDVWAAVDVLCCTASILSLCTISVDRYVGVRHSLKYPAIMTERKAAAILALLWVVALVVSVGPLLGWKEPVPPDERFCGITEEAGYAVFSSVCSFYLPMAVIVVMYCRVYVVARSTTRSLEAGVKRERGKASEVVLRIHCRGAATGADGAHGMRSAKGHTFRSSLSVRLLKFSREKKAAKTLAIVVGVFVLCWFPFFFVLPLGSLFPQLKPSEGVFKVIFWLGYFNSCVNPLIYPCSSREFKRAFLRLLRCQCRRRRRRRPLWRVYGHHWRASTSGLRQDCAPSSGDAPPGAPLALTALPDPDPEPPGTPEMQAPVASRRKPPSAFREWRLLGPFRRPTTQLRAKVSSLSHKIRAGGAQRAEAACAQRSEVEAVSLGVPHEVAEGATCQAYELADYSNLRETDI
Nature of the test: biochemical.
Description: Displacement of [3H]prazosin from human recombinant Alpha-1D adrenoceptor expressed in CHO cells after 30 mins by liquid scintillation counting

The target in test [9] is T8, 5-hydroxytryptamine receptor 1A (Homo sapiens, UniProt P08908).
T8 sequence (P08908 whole entry): T2 sequence (whole entry)
The experiment in a line: biochemical.

Each structure is given as a SMILES string.

As to `COc1ccccc1N1CCN(CCN2C(=O)CC3(CCCC3)CC2=O)CC1`, the pKb (in general, −log10 of the Kb, conventionally taken in molar units) in test [1] came out at 7.48. Also, the pD2 in [2] was 9.27.
Consider `c1ccc(OCCNCC2COC(c3ccccc3)(c3ccccc3)O2)cc1` (stereo not drawn), for which the pKb in [3] stood at 6.16; in [1], 5.86; in test [4] it was 8.37. Besides, in test [5], the Emax (commonly the maximal effect, on the per cent scale that the assay sets) was determined as 24.4%. In addition, the pD2 in [2] was found to be 8.8.
Turning to `c1ccc(OCCNCC2CCC(c3ccccc3)(c3ccccc3)O2)cc1` (stereo not drawn), the negative logarithm of the Kb (pKb) in test [3] stood at 6.26; in [1], 6.2; in [4] it was 7.21. The inhibition constant Ki – broadly, a measure of affinity in units of concentration, obtained from inhibition or displacement – is 53.7 nM in test [6], 123 nM in [7], 31.6 nM in test [8] and 2 nM in test [9].
As for `COc1ccccc1N1CCN(CC2CCC(c3ccccc3)(c3ccccc3)C2=O)CC1` (stereo not drawn), the negative-log Kb (pKb) in test [3] came out at 6.28; in test [1], 7.54; in test [4] it was 6.43. Also, the inhibition constant Ki was 39.8 nM in test [6], 141 nM in test [7], 155 nM in test [8] and 3.47 nM in test [9].
As for `COc1ccccc1OCCNCC1COC(c2ccccc2)(c2ccccc2)O1` (stereo not drawn), the pKb is 7.53 in [3], 7.36 in test [1] and 8.65 in test [4]. In addition, the Emax in [5] worked out at 31.6%. In test [2], this compound registered a pD2 of 7.36.
Regarding `COc1ccccc1N1CCN(CC2CCC(c3ccccc3)(c3ccccc3)O2)CC1` (stereo not drawn), the pKb in [3] stood at 7.65; in test [1] it was 6.85; in test [4], 7.5. Besides, the Ki in test [6] was 0.646 nM; in test [7], 8.91 nM; in test [8], 3.89 nM; in [9], 4.37 nM.
